Results from patent US10174053B2, “2 substituted cephem compounds” (Glaxo Group Limited, priority 2012, dated 2019).
In brackets after ≈: the same amount, converted by molar mass.

How the values were obtained:
Test in all cases: In vitro antimicrobial activity, MIC by broth microdilution (CLSI)
Format in all cases: cell-based
A. baumannii JMI2346 = details: Acinetobacter baumannii, JMI2346; OXA-51, TEM, ESBL and OXA-type carbapenemase producing strain; 5×10^5 cfu/mL; cation-adjusted Iso-Sensitest broth containing human Apo-transferrin; read-out: Minimum Inhibitory Concentration (MIC) A. baumannii JMI:2346
Description: (§1) Compound (I) of the invention was evaluated for in vitro antimicrobial activity thereof.
(§2) Measurement of Minimum Inhibitory Concentration (MIC: μg/mL) was conducted according to CLSI (Clinical and Laboratory Standards Institute) method, and the amount of bacteria for inoculation was 5×10^5 cfu/mL, and cation-adjusted Iso-Sensitest broth containing human Apo-transferrin was used as a test medium, and the experiment was conducted using broth microdilution method. The bacteria used are listed below.

K. pneumoniae SR01358 = details: Klebsiella pneumoniae, SR01358; KPC-2, ESBL and KPC-type carbapenemase producing strain; 5×10^5 cfu/mL; cation-adjusted Iso-Sensitest broth containing human Apo-transferrin; read-out: Minimum Inhibitory Concentration (MIC) K. pneumoniae SR01358
Description: as §1, §2

A. baumannii JMI7 = details: Acinetobacter baumannii, JMI7; PER-1, OXA-23, 51, ESBL and OXA-type carbapenemase producing strain; 5×10^5 cfu/mL; cation-adjusted Iso-Sensitest broth containing human Apo-transferrin; read-out: Minimum Inhibitory Concentration (MIC) A. baumannii JMI:7
Description: as §1, §2

E. Coli JMI1890 = details: Escherichia coli; PER-1, TEM-1, ESBL producing strain; 5×10^5 cfu/mL; cation-adjusted Iso-Sensitest broth containing human Apo-transferrin; read-out: Minimum Inhibitory Concentration (MIC) E. Coli JMI:1890
Description: as §1, §2

Work on C[C@@H]1S[C@@H]2[C@H](NC(=O)/C(=N\OC(C)(C)C(=O)[O-])c3csc(N)n3)C(=O)N2C(C(=O)O)=C1C[N+]12CCC(CNC(=O)c3ccc(O)c(O)c3Cl)(CC1)CC2 [Compound I-40] yielded an MIC (A. baumannii JMI2346) of 4 µg/mL (≈ 5.05 µM), an MIC (K. pneumoniae SR01358) of 0.063 µg/mL (≈ 0.0795 µM) and an MIC (A. baumannii JMI7) of 1 µg/mL (≈ 1.26 µM). The MIC (E. Coli JMI1890) was 0.5 µg/mL (≈ 0.631 µM).
Work on C[C@@H]1S[C@@H]2[C@H](NC(=O)/C(=N\OC(C)(C)C(=O)[O-])c3csc(N)n3)C(=O)N2C(C(=O)O)=C1C[N@+]12CCC[C@H]1CN(C(=O)c1ccc(O)c(O)c1Cl)CC2 [Compound I-41] yielded an MIC (A. baumannii JMI2346) of 4 µg/mL (≈ 5.14 µM), an MIC (K. pneumoniae SR01358) of 0.063 µg/mL (≈ 0.0809 µM) and an MIC (A. baumannii JMI7) of 1 µg/mL (≈ 1.28 µM). For the same compound, the MIC (E. Coli JMI1890) was 1 µg/mL (≈ 1.28 µM).
For C[C@@H]1S[C@@H]2[C@H](NC(=O)/C(=N\OC(C)(C)C(=O)[O-])c3csc(N)n3)C(=O)N2C(C(=O)O)=C1C[N+]1(CCN2C(=O)c3ccc(O)c(O)c3C2=O)CCCCC1 [Compound I-42], the MIC (A. baumannii JMI2346) was 2 µg/mL (≈ 2.59 µM), the MIC (K. pneumoniae SR01358) was 0.063 µg/mL (≈ 0.0816 µM) and the MIC (A. baumannii JMI7) was 0.5 µg/mL (≈ 0.648 µM). For the same compound, the MIC (E. Coli JMI1890) was 0.5 µg/mL (≈ 0.648 µM).
Compound C[C@@H]1S[C@@H]2[C@H](NC(=O)/C(=N\OC(C)(C)C(=O)[O-])c3csc(N)n3)C(=O)N2C(C(=O)O)=C1C[N+]1(CCNC(=O)c2ccc(O)c(O)c2Cl)CCCCC1 [Compound I-43] has an MIC (A. baumannii JMI2346) of 4 µg/mL (≈ 5.13 µM), an MIC (K. pneumoniae SR01358) of 0.063 µg/mL (≈ 0.0807 µM) and an MIC (A. baumannii JMI7) of 1 µg/mL (≈ 1.28 µM). It also gave an MIC (E. Coli JMI1890) of 0.5 µg/mL (≈ 0.641 µM).
Work on C[C@@H]1S[C@@H]2[C@H](NC(=O)/C(=N\OC(C)(C)C(=O)[O-])c3csc(N)n3)C(=O)N2C(C(=O)O)=C1C[N+]1(CCN2C(=O)c3ccc(O)c(O)c3C2=O)CCCC1 [Compound I-51] yielded an MIC (A. baumannii JMI2346) of 8 µg/mL (≈ 10.6 µM), an MIC (K. pneumoniae SR01358) of 0.125 µg/mL (≈ 0.165 µM) and an MIC (A. baumannii JMI7) of 2 µg/mL (≈ 2.64 µM). It also gave an MIC (E. Coli JMI1890) of 0.5 µg/mL (≈ 0.66 µM).
C[C@@H]1S[C@@H]2[C@H](NC(=O)/C(=N\OC(C)(C)C(=O)[O-])c3csc(N)n3)C(=O)N2C(C(=O)O)=C1C[N+]1(CCNC(=O)c2ccc(O)c(O)c2Cl)CCCC1 [Compound I-52] gave an MIC (A. baumannii JMI2346) of 4 µg/mL (≈ 5.22 µM), an MIC (K. pneumoniae SR01358) of no more than 0.031 µg/mL and an MIC (A. baumannii JMI7) of 1 µg/mL (≈ 1.31 µM). It also gave an MIC (E. Coli JMI1890) of 0.25 µg/mL (≈ 0.326 µM).
C[C@H]1S[C@@H]2[C@H](NC(=O)/C(=N\OC(C)(C)C(=O)[O-])c3csc(N)n3)C(=O)N2C(C(=O)O)=C1C[N+]1(CCNC(=O)c2ccc(O)c(O)c2Cl)CCCC1 [Compound I-53] was tested, and the MIC (A. baumannii JMI2346) was 4 µg/mL (≈ 5.22 µM), the MIC (K. pneumoniae SR01358) was 0.25 µg/mL (≈ 0.326 µM) and the MIC (A. baumannii JMI7) was 2 µg/mL (≈ 2.61 µM). The MIC (E. Coli JMI1890) was 0.25 µg/mL (≈ 0.326 µM).
With C[C@@H]1S[C@@H]2[C@H](NC(=O)/C(=N\OC(C)(C)C(=O)[O-])c3csc(N)n3)C(=O)N2C(C(=O)O)=C1C[N@+]1(C)[C@@H]2CC[C@H]1C[C@@H](NC(=O)c1ccc(O)c(O)c1Cl)C2 [Compound I-54] the MIC (A. baumannii JMI2346) was 1 µg/mL (≈ 1.26 µM), the MIC (K. pneumoniae SR01358) was no more than 0.031 µg/mL and the MIC (A. baumannii JMI7) was 0.5 µg/mL (≈ 0.631 µM). For the same compound, the MIC (E. Coli JMI1890) was 0.125 µg/mL (≈ 0.158 µM).
C[C@@H]1S[C@@H]2[C@H](NC(=O)/C(=N\OC(C)(C)C(=O)[O-])c3csc(N)n3)C(=O)N2C(C(=O)[O-])=C1C[N+]12CCC(CNC(=O)c3cc(O)c(O)c(Cl)c3)(CC1)CC2.[Na+] [Compound I-60] showed an MIC (A. baumannii JMI2346) of 4 µg/mL, an MIC (K. pneumoniae SR01358) of no more than 0.031 µg/mL and an MIC (A. baumannii JMI7) of 1 µg/mL. It also gave an MIC (E. Coli JMI1890) of 1 µg/mL.
In the case of C[C@@H]1S[C@@H]2[C@H](NC(=O)/C(=N\OC(C)(C)C(=O)[O-])c3csc(N)n3)C(=O)N2C(C(=O)[O-])=C1C[N+]1(CCNC(=O)c2cc(O)c(O)c(Cl)c2)CCCC1.[Na+] [Compound I-61], the MIC (A. baumannii JMI2346) is reported as 16 µg/mL, the MIC (K. pneumoniae SR01358) is reported as 0.063 µg/mL and the MIC (A. baumannii JMI7) is reported as 2 µg/mL. It also gave an MIC (E. Coli JMI1890) of 2 µg/mL.
In the case of C[C@@H]1S[C@@H]2[C@H](NC(=O)/C(=N\OC(C)(C)C(=O)[O-])c3csc(N)n3)C(=O)N2C(C(=O)[O-])=C1C[N+]12CCC(CC1)N(C(=O)c1ccc(O)c(O)c1Cl)CC2.[Na+] [Compound I-62], the MIC (A. baumannii JMI2346) is reported as 2 µg/mL, the MIC (K. pneumoniae SR01358) is reported as no more than 0.031 µg/mL and the MIC (A. baumannii JMI7) is reported as 0.5 µg/mL. For the same compound, the MIC (E. Coli JMI1890) was 0.063 µg/mL.
For C[C@@H]1S[C@@H]2[C@H](NC(=O)/C(=N\OC(C)(C)C(=O)[O-])c3csc(N)n3)C(=O)N2C(C(=O)[O-])=C1C[N+]12CCC[C@H]1CN(C(=O)c1cc(O)c(O)c(Cl)c1)CC2.[Na+] (stereo partly shown) [Compound I-64], the MIC (A. baumannii JMI2346) was 4 µg/mL, the MIC (K. pneumoniae SR01358) was no more than 0.031 µg/mL and the MIC (A. baumannii JMI7) was 2 µg/mL. For the same compound, the MIC (E. Coli JMI1890) was 0.125 µg/mL.
In the case of C[C@@H]1S[C@@H]2[C@H](NC(=O)/C(=N\OC(C)(C)C(=O)[O-])c3csc(N)n3)C(=O)N2C(C(=O)[O-])=C1C[N+]12CCC(CC1)N(C(=O)c1cc(O)c(O)c(Cl)c1)CC2.[Na+] [Compound I-65], the MIC (A. baumannii JMI2346) is reported as 2 µg/mL, the MIC (K. pneumoniae SR01358) is reported as no more than 0.031 µg/mL and the MIC (A. baumannii JMI7) is reported as 0.5 µg/mL. It also gave an MIC (E. Coli JMI1890) of 0.125 µg/mL.
